# In patent publication US6414014B1 (Bristol-Myers Squibb Company, priority 1992, dated 2002):
# Legend:
# [1] = tested on: patients suffering from ovarian carcinoma; assay: Multi-center, randomized comparative study of taxol in platinum pretreated ovarian carcinoma: objective response; type: in vivo
# Text: The high degree of success, greater than 10% of objective response, to treatment by patients suffering from drug refractory ovarian carcinoma is truly astonishing, since responses to drug refractory ovarian carcinoma are extremely uncommon. While experimental data is provided herein for the successful treatment of ovarian carcinoma with taxol using the present treatment protocol, it is to be understood that the treatment protocol can be used for the treatment of other forms of cancer with taxol, such as melanoma, renal cell carcinoma, and other cancers which are treatable with taxol.
# Responses were evaluated every two cycles.
# Patients with ovarian carcinoma included in the study had been treated with and were unresponsive to a minimum of one but no more than two platinum-containing chemotherapy regimens, and were required to have shown progression during or relapse after their last regimen of chemotherapy. Patients were treated every 21 days if allowed by toxicity.
# While an emulsion of taxol in polyethoxylated caster oil in dehydrated alcohol is utilized as a vehicle in a preferred embodiment, it is contemplated that other pharmaceutically acceptable vehicles for taxol may be used.
# This procedure enables the accurate accessment of the patient receiving the taxol.
# Patients ranged between 18 and 75 years in age with an Eastern Cooperative Oncology Group, ECOG, performance status of 0, 1, or 2, and had to have recovered from all toxicities of previous treatment. Further, no prior chemotherapy or radiotherapy were allowed within four weeks prior to entry into the study (patients were also not entered into the study if there had been less than six weeks since prior mitomycin, nitrosureas, or high-dose carboplatin therapy). An adequate baseline bone marrow function was required, which was defined as a granulocyte count ≧2,000 cells/cmm and a platelet count ≧100,000 cells/cmm. Adequate hepatic and renal functions were required with normal hepatic function defined as total billirubin ≦1.5 times upper normal value and normal renal function defined as serum creatinine ≦1.5 times upper normal value. Patients with abdominal adenocarcinoma, a previous history of a trial or ventricular arrhythmias, congestive heart failure, myocardial infarction within six months preceding randomization, complete bowel obtruction, a pre-existing neuropathy <WHO grade 2, active infection, prior allergic reaction to drugs containing Cremaphor, or other serious medical condition were excluded from this study.
# Eligible patients were randomized according to a computerized randomization log. During therapy, hematology data (hemoglobin, white blood cell count, granulocytes and platelets) were collected, and toxicity assessments were continuously made. After each cycle, a physical history update was recorded, as well as tumor measurement, performance status (ECOG), hematology, chemistry (serum creatinine, billirubin, alkaline phosphatase, (SLOT (AST), CA125) and a toxicity assessment. A quality of life assessment was also made after each cycle, and every two months until six months after treatment stopped.
# [2] = Hypersensitivity reactions (HSR) in the randomized taxol study; type: in vivo, patients
# Procedure: Patients with platinum pretreated recurrent ovarian cancer were randomized to a 135 or 175 mg/m^2 dose arm, administered as a 3-hour or 24-hour IV infusion, which was repeated every three weeks. Responses were evaluated every two cycles.
# A nurse remained with each patient for the first hour of each infusion. Temperature, pulse, blood pressure, and respiration were taken preinfusion, every 15 minutes for the first hour, every thirty minutes for the next 2 hours, hourly for the next 4 hours, and every other hour until the end of the infusion (for patients receiving the 24-hour infusion). Other observations were also documents, such as rash/redness of the skin, hives, vomiting, nausea, and any other symptoms including neuropathy and skin rashes.
# [3] = in vivo
# Procedure: Patients with platinum pretreated recurrent ovarian cancer were randomized to a 135 or 175 mg/m^2 dose arm, administered as a 3-hour or 24-hour IV infusion, which was repeated every three weeks. Responses were evaluated every two cycles. All four treatment groups were matched for age, performance status, previous treatments, and time from last platinum therapy.
# All rechallenge patients received a prolonged 24-hour infusion, even if the hypersensitivity reaction occurred during a 3-hour infusion. Dosage reductions in subsequent treatment courses were mandated for all patients having (1) a granulocyte count of less than 500 cells/cmm, (2) a platelet count of less than 50,000 cells/cmm for seven days or more, (3) febrile neutropenia, (4) infection, (5) hemmorage, (6) mucositis with vesiculation and/or ulcers, or (7) vomiting appearing despite anti-emitic premedication.
# [4] = 6-hour IV infusion every 21 days without premedication; cited from earlier work
# [5] = TOTAL, all four arms, 528 courses analyzed
# [6] = arm 135/3 (mg/m^2/infusion hours), 132 courses analyzed
# [7] = arm 135/24 (mg/m^2/infusion hours), 141 courses analyzed
# [8] = arm 175/3 (mg/m^2/infusion hours), 92 courses analyzed
# [9] = arm 175/4 (mg/m^2/infusion hours), 163 courses analyzed
structure (smiles),measurement,setting,value
CC(=O)O[C@H]1C(=O)[C@@]2(C)[C@H]([C@H](OC(=O)c3ccccc3)[C@]3(O)C[C@H](OC(=O)[C@H](O)[C@@H](NC(=O)c4ccccc4)c4ccccc4)C(C)=C1C3(C)C)[C@]1(OC(C)=O)CO[C@@H]1C[C@@H]2O [taxol],"stabilization of disease, patients with an early relapse after platinum",[1],53%
same,response to taxol in patients who had progressed on previous platinum containing chemotherapy,[1]; 3 out of 46,7%
same,response to taxol in patients considered resistant to platinum therapy,"[1]; 14/114, progression on therapy or relapse within six months",13%
same,"objective response rate, not evaluated and unevaluable patients excluded",[1]; 22/135 patients,16%
same,"stabilization of disease, patients with disease truly refractory to platinum",[1]; 24/46,52%
same,"response to taxol, platinum resistant patients with one previous regimen of platinum",[1]; in vivo,15%
same,"response to taxol, platinum resistant patients with two previous regimens of platinum",[1]; in vivo,10%
same,patients with stable disease continued on taxol,[1]; of 157 patients,51 patients
same,hypersensitivity reactions which required acute therapeutic intervention,[2]; 2 of 157 patients,1%
same,severe hypersensitivity reaction in one patient,"[2]; 24-hour arm, course 2 at dose reduced by 20%, less than 1 ml infused",tachychardia and shortness of breath
same,patients exhibiting some type of hypersensitivity reaction,"[2]; 57/157, all arms",35%
same,Patients reporting a HSR,"[2]; TOTAL, all four arms, 157 patients analyzed",57 (36) n (%)
same,Courses with a reported HSR,[2]; [5],136 (26) n (%)
same,Type of HSR Per Course: Arrhytheria,[2]; [5],1 n (%)
same,Type of HSR Per Course: Chest pain,[2]; [5],1 n (%)
same,Type of HSR Per Course: Dyspriea,[2]; [5],5 n (%)
same,Type of HSR Per Course: Ederma face,[2]; [5],2 n (%)
same,Type of HSR Per Course: Eye disorder,[2]; [5],2 n (%)
same,Type of HSR Per Course: Flushing,[2]; [5],103 n (%)
same,Type of HSR Per Course: Headache,[2]; [5],1 n (%)
same,Type of HSR Per Course: Hypertension,[2]; [5],1 n (%)
same,Type of HSR Per Course: Hypotension,[2]; [5],13 n (%)
same,Type of HSR Per Course: Nausea/Vomiting,[2]; [5],1 n (%)
same,Type of HSR Per Course: Pruritis,[2]; [5],2 n (%)
same,Type of HSR Per Course: Rash,[2]; [5],21 n (%)
same,Type of HSR Per Course: Tachychardia,[2]; [5],1 n (%)
same,Patients reporting a HSR,"[2]; arm 135/3 (mg/m^2/infusion hours), 39 patients analyzed",11 (28) n (%)
same,Courses with a reported HSR,[2]; [6],23 (17) n (%)
same,Type of HSR Per Course: Dyspriea,[2]; [6],2 n (%)
same,Type of HSR Per Course: Eye disorder,[2]; [6],2 n (%)
same,Type of HSR Per Course: Flushing,[2]; [6],15 n (%)
same,Type of HSR Per Course: Hypotension,[2]; [6],1 n (%)
same,Type of HSR Per Course: Pruritis,[2]; [6],2 n (%)
same,Type of HSR Per Course: Rash,[2]; [6],6 n (%)
same,Patients reporting a HSR,"[2]; arm 135/24 (mg/m^2/infusion hours), 44 patients analyzed",18 (41) n (%)
same,Courses with a reported HSR,[2]; [7],44 (31) n (%)
same,Type of HSR Per Course: Chest pain,[2]; [7],1 n (%)
same,Type of HSR Per Course: Dyspriea,[2]; [7],3 n (%)
same,Type of HSR Per Course: Flushing,[2]; [7],40 n (%)
same,Type of HSR Per Course: Headache,[2]; [7],1 n (%)
same,Type of HSR Per Course: Hypotension,[2]; [7],1 n (%)
same,Type of HSR Per Course: Nausea/Vomiting,[2]; [7],1 n (%)
same,Type of HSR Per Course: Rash,[2]; [7],6 n (%)
same,Type of HSR Per Course: Tachychardia,[2]; [7],1 n (%)
same,Patients reporting a HSR,"[2]; arm 175/3 (mg/m^2/infusion hours), 29 patients analyzed",12 (41) n (%)
same,Courses with a reported HSR,[2]; [8],23 (25) n (%)
same,Type of HSR Per Course: Ederma face,[2]; [8],1 n (%)
same,Type of HSR Per Course: Flushing,[2]; [8],16 n (%)
same,Type of HSR Per Course: Hypotension,[2]; [8],1 n (%)
same,Type of HSR Per Course: Rash,[2]; [8],6 n (%)
same,Patients reporting a HSR,"[2]; arm 175/4 (mg/m^2/infusion hours), 45 patients analyzed",6 (36) n (%)
same,Courses with a reported HSR,[2]; [9],46 (28) n (%)
same,Type of HSR Per Course: Arrhytheria,[2]; [9],1 n (%)
same,Type of HSR Per Course: Ederma face,[2]; [9],1 n (%)
same,Type of HSR Per Course: Flushing,[2]; [9],32 n (%)
same,Type of HSR Per Course: Hypertension,[2]; [9],1 n (%)
same,Type of HSR Per Course: Hypotension,[2]; [9],10 n (%)
same,Type of HSR Per Course: Rash,[2]; [9],3 n (%)
same,patients who required a dose reduction,"[3]; female, human, 9 weeks",17%
same,"dose reduction required, long term infusion arms versus short term infusion arms",[3],more frequently
same,maximum tolerated dose,[4],275 mg/m^2
